Assay results as given in patent US20170319611A1, “METHODS AND COMPOSITIONS COMPRISING AKT INHIBITORS AND/OR PHOSPHOLIPASE D INHIBITORS” (Vanderbilt University, priority 2012, published 2017).

Key:
LC3 and p62 = test: Autophagy marker immunoblot (LC3-II, p62), U87MG cells; assay type: cell-based, human; details: for LC3-II levels relative to vehicle control: serum-free DMEM, 10 nM bafilomycin A1, 10 μM EVJ, 5 μM JWJ or 10 μM MK2206 for 6 h; for accumulation of LC3-II in the presence of bafilomycin A1: 10 nM bafilomycin A1 30 min, then inhibitor 6 h
Description: Lysates were prepared by incubating cell pellets in lysis buffer (see immunoprecipitation procedure) for 30 minutes at 4° C. Protein concentrations were measuring using the Bio-Rad protein assay reagent. The antibodies used in the various studies as described herein, along with their vendors and catalog numbers are provided in Table 3.
In addition to apoptosis, cells undergo another type of programmed cell death requiring autophagy (Tsujimoto and Shimizu, (2005) Cell Death Differ. 12 Suppl 2, 1528-1534), a process known to be stimulated by nutrient or growth factor deprivation (Kroemer, G. et al., (2010) Mol. Cell 40, 280-293). Autophagy is a multistep process involving formation of double-membrane autophagosomes that engulf cytosolic components and deliver cargo to lysosomes for digestion and nutrient recycling (Ravikumar, B. et al., (2009) J. Cell Sci. 122, 1707-1711). In order to determine if autophagy was perturbed following PLD or Akt inhibitor (MK2206) (Hirai, H. et al., (2010) Mol. Cancer Ther. 9, 1956-1967) treatment, the expression levels of the well-characterized autophagy makers microtubule-associated protein 1A/1B-light chain 3 (LC3) and p62 were measured. Autophagasome number is frequently assessed by measuring conversion of cytosolic LC3-I to a membrane-associated, lipidated LC3-II which is readily measureable as a faster migrating species of LC3 during SDS-PAGE (Kabeya, Y. et al., (2000) EMBO J. 19, 5720-5728). The other marker, p62, is an LC3 and ubiquitin-binding protein, involved in the regulation of protein aggregates and is degraded by autophagy (Komatsu, M. et al., (2005) J. Cell Biol. 169, 425-434). Induction of autophagy and successful degradation of autophagosomes would thus be accompanied by a decrease in p62 levels. […] Fold change in immunoreactivity relative to vehicle control. ANOVA with Dunnett's post-hoc test was used to compare inhibitor treatment to vehicle control (**p<0.01).
To conclusively determine that flux, rather than autophagosome initiation, is regulated by PLC, LC3-II conversion in the presence of the lysosomal proton pump inhibitor bafilomycin A1, which prevents autophagosome fusion to lysosomes and inhibits degradation of autophagosomes, was measured. Thus, bafilomycin A1 is commonly used to discriminate the effects of a compound on autophagy initiation versus flux by assessing LC3-II levels in the presence of a test compound after clamping degradation of autophagosomes (Yamamoto, A. et al., (1998) Cell Struct. Funct. 23, 33-42).

PLD2-Akt interaction = molecular target: T1, PLD2-Akt interaction (Homo sapiens, UniProt P31749); test: In vitro protein-protein interaction assay, purified PLD2 and Akt; assay type: binding; details: purified proteins, 10 μM inhibitor in reaction mixture
T1 construct: 6xHis (N); made in house; host or cells: Sf21 insect cells (baculovirus)
Description: 25 nM PLD2-PtS or PtS tag were incubated with 50 nM 6×His-Aktl for 2 h in 50 mM Tris pH 8.0, 0.01% Nonidet P-40, 150 mM NaCl, 0.5 mM EDTA, and 50 mg/mL avidin. Where indicated, 10 μM inhibitor was included in the reaction mixture. PtS-tagged proteins were captured by incubation with strep-tactin resin for 2 h.
Although proteins may co-IP from cell lysate, determining whether proteins form a direct interaction requires binding experiments with purified proteins. As described herein, recombinant Akt and PLD2 was then expressed and purified from Sf21 insect cells (FIG. 8C). […] Numbers indicate molecular weights in kilodaltons. […] Since PLD2 and Akt appear to interact directly, the PLD inhibitors were evaluated to determine whether they disrupted the protein-protein interaction as a potential mechanism by which PLD2 regulates activation of Akt in cells. As described herein, purified PLD2 and Akt were incubated in the presence of EVJ, JWJ, or the allosteric pan-Akt inhibitor, MK2206 (Hirai, H. et al., (2010) Mol. Cancer Ther. 9, 1956-1967) and proteins captured using affinity resin. […] Referring to FIG. 9B, the same procedure was used as in 9A, except 10 μM EVJ, JWJ, or Akt inhibitor MK2206 was included in the reaction mixture.

Akt = Akt membrane recruitment (membrane isolation), U87MG cells; assay type: cell-based, human; details: overnight 5 μM JWJ
Description: U87MG cells were seeded in 150 mm tissue culture plates at 2.6×10^6 cells/plate (4 plates per condition) and allowed to adhere overnight. The following day, cells were washed and media replaced with DMEM+indicated inhibitor or vehicle and cells were treated for up to 12 h. Cells were washed twice in 1×PBS then scraped in homogenization buffer (20 mM HEPES pH 7.4, 1 mM EDTA, 250 mM sucrose). Cells were pelleted by centrifugation at 1,000×g for 4 minutes at 4° C. […] Lysate was collected dropwise then centrifuged at 2,000×g for 10 min to pellet unbroken cells, nuclei, and heavy debris. The supernatant was subsequently centrifuged at 100,000×g for 60 min. The supernatant was saved as the cytosolic fraction and the 100,000×g pellet was washed once by resuspension in lysis buffer then centrifuged again under the same conditions.
2.5%, 10%, 17.5%, 25%, and 30% iodixanol solutions were prepared by mixing the appropriate ratios of 50% iodixanol with homogenization buffer. […]
In order to understand the mechanism by which PtdOH regulates Akt activation, it was first determined whether PtdOH and PIP3 share a binding site on Akt. […] Akt binding to PtdOH and PIP3 was then assessed using a protein-lipid overlay assay. […] Bound Akt was determined using an Akt specific antibody. […] GST-Akt PH domain fusion proteins were purified from E. coli and lipid binding was again assessed using a protein-lipid overlay.

AMPK = AMPK activation immunoblot, U87MG cells; assay type: cell-based, human; details: for AMPK activation (phosphorylation of threonine 172) / phosphorylation of acetyl-coA carboxylase (serine 79): 24 hours, 10 mM EVJ or 5 mM JWJ
Description: Another well-known regulator of autophagy is the adenosine monophosphate-activated protein kinase (AMPK). Changes in intracellular energy balance or metabolic stress are known to activate AMPK (Hardie, D. G. (2007) Nat. Rev. Mol. Cell Bio. 8, 774-785). AMPK serves as a metabolic checkpoint, acting to restore ATP levels through regulation of metabolic enzymes and inhibition of pro-growth anabolic pathways (Hardie, D. G. (2007) Nat. Rev. Mol. Cell Bio. 8, 774-785). […] U87MG cells were treated for 24 hours with […] before lysis and immunoblotting. AMPK activation was measured by assessing phosphorylation at threonine 172 and also by measuring activation of acetyl coenzyme A carboxylase (ACC) at serine 79.
Another AMPK substrate and component of the autophagasome initiation complex is Unc-51-like kinase 1 (ULK1). Several studies (Egan, D. F. et al., (2011) Science 331, 456-461; Kim, J. et al., (2011) Nature Cell Bio. 13, 132-141) have recently identified multiple AMPK sites on ULK1 that function to enhance initiation of autophagy. […] To determine whether the induction of autophagy through AMPK activation requires Akt, Aktl was silenced and then evaluated for effects of PLD inhibition on AMPK and ULK1 phosphorylation. Aktl was chosen to silence since Aktl phosphorylation was decreased following PLD inhibition in U87MG cells. […] U87MG cells were transfected with Aktl siRNA for 72 hours prior to cell lysis. Cells were treated with […] JWJ 24 hours prior to cell lysis.

myrAktl = test: Akt phosphorylation immunoblot, myrAktl U87MG cells; assay type: cell-based, human; details: overnight, serum-free DMEM; 10 μM EVJ or 5 μM JWJ
Description: To confirm the observed effects on autophagy and cell death following PLD inhibition in glioma cells was due to the regulation of Akt by PLD2, a stable U87MG cell line was developed to expresses a constitutively active form of Akt under the transcriptional control of the tetracycline repressor protein (Yao, F. et al., (1998) Hum. Gene Ther. 9, 1939-1950). This Akt construct contains the myristoylation sequence from Src kinase (Kohn, A. D. et al., (1996) J. Biol. Chem. 271, 31372-31378) and is constitutively membrane associated and active. Without wishing to be bound by a particular theory, if PtdOH serves to enhance membrane docking of Akt then PLD inhibition should not decrease phosphorylation of myristoylated Akt (myrAkt) since this construct bypasses lipid recruitment signals for membrane association. […] Tetracycline inducible myrAktl-expressing U87MG cells, or parental cells, were seeded into media containing 0.1 ug/ml tetracycline and protein expression induced for approximately 24 hours. […] Cells were seeded and treated as in figure A and immunoblotted for phosphorylated and total AMPK. AMPK activation was quantitated by densitometric quantification of the phospho-AMPK band over the total AMPK band. Fold changes were calculated by normalizing the DMSO condition to 1 for each cell line. […] Referring to FIG. 23B, parental or myrAktl U87MG cells were treated with the indicated inhibitors as in 23A overnight before blotting for phosphorylated and total Akt.

PLD = test: Endogenous PLD activity assay (PtdBuOH) in U87MG cells; assay type: cell-based, human
Description: Data is presented as the ratio of the predominant phosphatidylbutanol peaks to the internal standard. To generate concentration response curves, U87MG cells were serum starved for approximately 24 hours. Cells were treated with the indicated concentration of PLD inhibitor for 15 minutes prior to addition of n-butanol containing media and phospolipid extraction.
Cells were pretreated with inhibitors 30 min prior to measurement of PLD activity. Data is presented as the percent activity remaining after PLD inhibitor treatment relative to control.

T1 sequence (P31749 whole entry): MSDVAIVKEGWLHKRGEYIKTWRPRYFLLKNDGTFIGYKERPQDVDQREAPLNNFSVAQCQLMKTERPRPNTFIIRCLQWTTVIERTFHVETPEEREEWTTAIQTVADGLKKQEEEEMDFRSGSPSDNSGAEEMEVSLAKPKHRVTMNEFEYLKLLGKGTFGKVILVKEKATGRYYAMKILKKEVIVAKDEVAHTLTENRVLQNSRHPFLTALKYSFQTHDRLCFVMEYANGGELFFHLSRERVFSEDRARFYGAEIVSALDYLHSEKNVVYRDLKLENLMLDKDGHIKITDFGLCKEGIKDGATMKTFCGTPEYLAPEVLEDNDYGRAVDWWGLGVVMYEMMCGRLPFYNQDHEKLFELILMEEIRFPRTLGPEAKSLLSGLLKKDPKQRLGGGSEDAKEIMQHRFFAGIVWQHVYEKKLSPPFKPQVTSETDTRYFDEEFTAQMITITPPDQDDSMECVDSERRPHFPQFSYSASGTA

CO/C1=C\C(C)=C\[C@@H](C)[C@@H](O)[C@@H](C)C/C(C)=C/C=C/[C@H](OC)[C@@H]([C@@H](C)[C@@H](O)[C@H](C)[C@@]2(O)C[C@@H](O)[C@H](C)[C@@H](C(C)C)O2)OC1=O [Bafilomycin A1]
LC3-II levels relative to vehicle control (LC3 and p62): increased LC3-II levels relative to vehicle control

NC1(c2ccc(-c3nc4ccn5c(=O)[nH]nc5c4cc3-c3ccccc3)cc2)CCC1 [MK2206]
PLD2-Akt interaction (PLD2-Akt interaction): disrupted the PLD2-Akt interaction | accumulation of LC3-II in the presence of bafilomycin A1 (LC3 and p62): no additional accumulation of LC3-II | LC3-II levels relative to vehicle control (LC3 and p62): increased LC3-II levels relative to vehicle control

O=C(NCCN1CCC2(CC1)C(=O)NCN2c1cccc(F)c1)c1ccc2ccccc2c1 [No. 1, N-(2-(1-(3-fluorophenyl)-4-oxo-1,3,8-triazaspiro[4.5]decan-8-yl)ethyl)-2-naphthamide]
PLD2-Akt interaction (PLD2-Akt interaction): detected even in the presence of PLD inhibitors | membrane recruitment of Akt (Akt): diminished | accumulation of LC3-II in the presence of bafilomycin A1 (LC3 and p62): no additional accumulation of LC3-II | AMPK activation (phosphorylation of threonine 172) (AMPK): observed to increase | phosphorylation of acetyl-coA carboxylase (serine 79) (AMPK): increased phosphorylation of acetyl-coA carboxylase | AMPK or ULK1 phosphorylation when Aktl is silenced (AMPK; Aktl siRNA 72 hours, 5 mM JWJ 24 hours): does not appear to increase AMPK or ULK1 phosphorylation more than DMSO control | phosphorylated Akt in myrAktl U87MG cells (myrAktl): failed to reduce levels of phosphorylated Akt

C[C@@H](CN1CCC(n2c(=O)[nH]c3cc(Br)ccc32)CC1)NC(=O)[C@@H]1C[C@@H]1c1ccccc1 [No. 2, (1R,2S)—N-((S)-1-(4-(5-bromo-2-oxo-2,3-dihydro-1H-benzo[d]imidazol-1-yl)piperidin-1-yl)propan-2-yl)-2-phenylcyclopropane carboxamide]
IC50 (PLD; U87MG cells, serum withdrawn 24 h, inhibitor pretreatment 30 min, read-out: IC50, attenuation of PLD activity following serum-withdrawal): ~500 nM | PLD2-Akt interaction (PLD2-Akt interaction): detected even in the presence of PLD inhibitors | accumulation of LC3-II in the presence of bafilomycin A1 (LC3 and p62): no additional accumulation of LC3-II | AMPK activation (phosphorylation of threonine 172) (AMPK): observed to increase | phosphorylation of acetyl-coA carboxylase (serine 79) (AMPK): increased phosphorylation of acetyl-coA carboxylase | phosphorylated Akt in myrAktl U87MG cells (myrAktl): failed to reduce levels of phosphorylated Akt

CCC(=O)N1CCN(c2ccc(-n3c(=O)ccc4cnc5ccc(-c6cnc7ccccc7c6)cc5c43)cc2C(F)(F)F)CC1 [Torinl, reference compound]
phosphorylated Akt in myrAktl U87MG cells (myrAktl): decreased phosphorylation of myrAktl

C[C@@H](CN1CCC(n2c(=O)[nH]c3cc(Cl)ccc32)CC1)NC(=O)c1ccc2ccccc2c1 [VU0155069, reference compound]
PtdBuOH production (PLD; U87MG glioblastoma cells, FIG. 28B): blocks PtdBuOH production
